Measurements reported in the NIST ThermoML archive (doi:10.1021/je100832h).

Experiments:
[1] = xn = mol fraction of the nth substance listed; conditions: 101.32 kPa, Liquid, Vibrating tube method
[2] = excess molar enthalpy (molar enthalpy of mixing); xn = mol fraction of the nth substance listed; conditions: 101 kPa, Liquid, Calvet calorimetry

CCCCCCCC [octane] + CCOC(C)=O
Conditions | excess molar enthalpy [kcal/mol] | mass density [kg/m3]
[1], 291.15 K, x2 = 0 | – | 704.13
[1], 291.15 K, x2 = 0.0296 | – | 707.15
[1], 291.15 K, x2 = 0.0628 | – | 710.48
[1], 291.15 K, x2 = 0.1163 | – | 716.36
[1], 291.15 K, x2 = 0.1605 | – | 721.46
[1], 291.15 K, x2 = 0.2056 | – | 727.01
[1], 291.15 K, x2 = 0.2901 | – | 738.23
[1], 291.15 K, x2 = 0.3723 | – | 750.35
[1], 291.15 K, x2 = 0.4427 | – | 761.76
[1], 291.15 K, x2 = 0.5131 | – | 774.24
[1], 291.15 K, x2 = 0.5744 | – | 785.94
[1], 291.15 K, x2 = 0.6332 | – | 798.14
[1], 291.15 K, x2 = 0.6886 | – | 810.54
[1], 291.15 K, x2 = 0.7414 | – | 823.25
[1], 291.15 K, x2 = 0.7945 | – | 836.98
[1], 291.15 K, x2 = 0.84 | – | 849.83
[1], 291.15 K, x2 = 0.895 | – | 866.53
[1], 291.15 K, x2 = 0.9304 | – | 878.05
[1], 291.15 K, x2 = 0.9523 | – | 885.46
[1], 298.15 K, x2 = 0 | – | 698.6
[1], 298.15 K, x2 = 0.0485 | – | 703.3
[1], 298.15 K, x2 = 0.0998 | – | 708.8
[1], 298.15 K, x2 = 0.1711 | – | 716.9
[1], 298.15 K, x2 = 0.2518 | – | 727.02
[1], 298.15 K, x2 = 0.3198 | – | 736.29
[1], 298.15 K, x2 = 0.3814 | – | 745.42
[1], 298.15 K, x2 = 0.4622 | – | 758.48
[1], 298.15 K, x2 = 0.4977 | – | 764.69
[1], 298.15 K, x2 = 0.5598 | – | 776.23
[1], 298.15 K, x2 = 0.6548 | – | 795.8
[1], 298.15 K, x2 = 0.6729 | – | 799.8
[1], 298.15 K, x2 = 0.6865 | – | 802.9
[1], 298.15 K, x2 = 0.755 | – | 819.2
[1], 298.15 K, x2 = 0.7913 | – | 828.6
[1], 298.15 K, x2 = 0.8335 | – | 840.2
[1], 298.15 K, x2 = 0.8686 | – | 850.5
[1], 298.15 K, x2 = 0.9039 | – | 861.4
[1], 298.15 K, x2 = 0.9578 | – | 879.3
[1], 318.15 K, x2 = 0 | – | 682.16
[1], 318.15 K, x2 = 0.034 | – | 685.37
[1], 318.15 K, x2 = 0.108 | – | 692.6
[1], 318.15 K, x2 = 0.1961 | – | 702.19
[1], 318.15 K, x2 = 0.2859 | – | 713.24
[1], 318.15 K, x2 = 0.3635 | – | 723.8
[1], 318.15 K, x2 = 0.4203 | – | 732.23
[1], 318.15 K, x2 = 0.4875 | – | 743.04
[1], 318.15 K, x2 = 0.5678 | – | 757.24
[1], 318.15 K, x2 = 0.6088 | – | 765.1
[1], 318.15 K, x2 = 0.6633 | – | 776.23
[1], 318.15 K, x2 = 0.7123 | – | 786.92
[1], 318.15 K, x2 = 0.764 | – | 799.14
[1], 318.15 K, x2 = 0.8086 | – | 810.54
[1], 318.15 K, x2 = 0.8487 | – | 821.51
[1], 318.15 K, x2 = 0.8943 | – | 834.53
[1], 318.15 K, x2 = 0.932 | – | 846.34
[1], 318.15 K, x2 = 0.9762 | – | 860.93
[1], 328.15 K, x2 = 0 | – | 674.15
[1], 328.15 K, x2 = 0.0441 | – | 678
[1], 328.15 K, x2 = 0.1138 | – | 684.7
[1], 328.15 K, x2 = 0.2084 | – | 694.85
[1], 328.15 K, x2 = 0.2915 | – | 704.8
[1], 328.15 K, x2 = 0.3741 | – | 715.9
[1], 328.15 K, x2 = 0.4415 | – | 725.91
[1], 328.15 K, x2 = 0.5234 | – | 739.31
[1], 328.15 K, x2 = 0.5735 | – | 748.22
[1], 328.15 K, x2 = 0.6354 | – | 760.07
[1], 328.15 K, x2 = 0.6861 | – | 770.65
[1], 328.15 K, x2 = 0.7435 | – | 783.45
[1], 328.15 K, x2 = 0.7958 | – | 796.07
[1], 328.15 K, x2 = 0.8407 | – | 807.86
[1], 328.15 K, x2 = 0.8822 | – | 819.28
[1], 328.15 K, x2 = 0.927 | – | 832.83
[1], 328.15 K, x2 = 0.9737 | – | 848.01
[2], 291.15 K, x2 = 0.0994 | 0.146 | –
[2], 291.15 K, x2 = 0.1715 | 0.23 | –
[2], 291.15 K, x2 = 0.254 | 0.303 | –
[2], 291.15 K, x2 = 0.3369 | 0.355 | –
[2], 291.15 K, x2 = 0.4081 | 0.383 | –
[2], 291.15 K, x2 = 0.474 | 0.399 | –
[2], 291.15 K, x2 = 0.5317 | 0.4 | –
[2], 291.15 K, x2 = 0.5698 | 0.392 | –
[2], 291.15 K, x2 = 0.5955 | 0.386 | –
[2], 291.15 K, x2 = 0.6441 | 0.371 | –
[2], 291.15 K, x2 = 0.6953 | 0.344 | –
[2], 291.15 K, x2 = 0.7435 | 0.313 | –
[2], 291.15 K, x2 = 0.7996 | 0.272 | –
[2], 291.15 K, x2 = 0.853 | 0.226 | –
[2], 291.15 K, x2 = 0.8967 | 0.176 | –
[2], 291.15 K, x2 = 0.9435 | 0.118 | –
[2], 291.15 K, x2 = 0.981 | 0.0581 | –
[2], 298.15 K, x2 = 0.0774 | 0.102 | –
[2], 298.15 K, x2 = 0.1517 | 0.178 | –
[2], 298.15 K, x2 = 0.2198 | 0.243 | –
[2], 298.15 K, x2 = 0.2861 | 0.293 | –
[2], 298.15 K, x2 = 0.3374 | 0.326 | –
[2], 298.15 K, x2 = 0.3769 | 0.352 | –
[2], 298.15 K, x2 = 0.4335 | 0.377 | –
[2], 298.15 K, x2 = 0.4856 | 0.384 | –
[2], 298.15 K, x2 = 0.5281 | 0.383 | –
[2], 298.15 K, x2 = 0.5773 | 0.38 | –
[2], 298.15 K, x2 = 0.6255 | 0.371 | –
[2], 298.15 K, x2 = 0.6736 | 0.351 | –
[2], 298.15 K, x2 = 0.7261 | 0.325 | –
[2], 298.15 K, x2 = 0.7729 | 0.292 | –
[2], 298.15 K, x2 = 0.8276 | 0.246 | –
[2], 298.15 K, x2 = 0.8796 | 0.191 | –
[2], 298.15 K, x2 = 0.9202 | 0.129 | –
[2], 298.15 K, x2 = 0.9644 | 0.0648 | –
[2], 318.15 K, x2 = 0.0832 | 0.111 | –
[2], 318.15 K, x2 = 0.1591 | 0.195 | –
[2], 318.15 K, x2 = 0.2322 | 0.267 | –
[2], 318.15 K, x2 = 0.3009 | 0.319 | –
[2], 318.15 K, x2 = 0.3637 | 0.353 | –
[2], 318.15 K, x2 = 0.4184 | 0.374 | –
[2], 318.15 K, x2 = 0.4655 | 0.384 | –
[2], 318.15 K, x2 = 0.5112 | 0.388 | –
[2], 318.15 K, x2 = 0.5525 | 0.386 | –
[2], 318.15 K, x2 = 0.5886 | 0.382 | –
[2], 318.15 K, x2 = 0.6324 | 0.371 | –
[2], 318.15 K, x2 = 0.6807 | 0.355 | –
[2], 318.15 K, x2 = 0.7307 | 0.328 | –
[2], 318.15 K, x2 = 0.7788 | 0.293 | –
[2], 318.15 K, x2 = 0.8291 | 0.248 | –
[2], 318.15 K, x2 = 0.8801 | 0.192 | –
[2], 318.15 K, x2 = 0.9259 | 0.13 | –
[2], 318.15 K, x2 = 0.9646 | 0.0667 | –
